Data set [1] deals with Lactobacillus fermentum (ATCC 14931). As to the kind of experiment: Glucose Uptake Index (GUI) of Lactobacillus fermentum culture with 5% v/v ionic liquid. It counts as cell-based. The conditions noted are these: MRS medium, 16 hours, 30° C., paired control GUI 99.8, 26.5 or 94.6.
Data set [2] can be described thus: Extraction of ethanol from an aqueous solution by ionic liquid, HPLC. The conditions noted are these: concentration in aqueous solution after overnight equilibration with 5 vol % ionic liquid; control 684 mM. It counts as physicochemical.
Description: (§1) Ethanol and isobutanol concentration in the solution was measured using HPLC as described above following thorough mixing and overnight equilibration of the contents of the vial.
The nature of data set [3]: Extraction of isobutanol from an aqueous solution by ionic liquid, HPLC. Type of data set: physicochemical. Particulars: concentration in aqueous solution after overnight equilibration with 5 vol % ionic liquid; control 416 mM.
Description: as §1
Data set [4] deals with Lactobacillus zeae (ATCC 15820). As to the kind of experiment: Glucose Uptake Index (GUI) of Lactobacillus zeae culture with 5% v/v ionic liquid.
Description: This media was made per bottle instructions using sterilized water, and was then again filter sterilized before use. The test tubes were incubated at 30° C. at 175 rpm in an Inova Incubator (Karlsbad, Sweden). After 24 hours, the test tubes were removed and stored at 4° C.
A portion (50 μL) of each stock culture prepared as above was inoculated into separate 15 mL sterile polypropylene culture tubes containing fresh MRS medium (3 mL). These tubes were incubated for four hours at 30° C. at 175 rpm. After four hours, one of these culture tubes was inoculated with 150 μL (5% v/v) of each of the ionic liquids as listed in Table 1 below. […] Each tube that was inoculated with an ionic liquid was also paired with a tube that received no ionic liquid and was used as a control.
All culture tubes were then incubated again under the same conditions for another 16 hours. After 16 hours, the culture tubes were stored at −80° C. Analytical samples were taken from each culture tube by thawing the samples and spinning them at 28,000 rpm and 20° C. for ten minutes in a Sorvall Instruments RC3C (Newtown Conn.) centrifuge. One milliliter of supernatant was removed from each tube and was subjected to high performance liquid chromatography (HPLC) analysis using an Agilent (Palo Alto Calif.) HPLC 1100 with a BioRad Aminex 87-H using 0.008 N sulfuric acid with both diode array and refractive index detection, and an Agilent HPLC 1100 with a Shodex OH-pak column using 0.01 N sulfuric acid. Data analysis was performed using the Agilent Chemstation software and Microsoft Excel.
The glucose uptake index was calculated by taking the total glucose consumed in a fermentation sample, whether or not the sample contained an ionic liquid, and dividing it by the total initial glucose present in the broth at the start of fermentation.

Several values for one entry are separate records, joined by “and”; a condition that tells them apart may be missing. Equal entries are not always repeated.

On to “1-butyl-3-methylimidazolium 2-(1,2,2,2-tetrafluoroethoxy)-1,1,2,2-tetrafluoroethanesulfonate [[BMIM] [FS]]”, for which the “GUI of Sample (Glucose Utilization Index in the presence of 5% (v/v) of the ionic liquid phase)” value in data set [1] was 24.0.

With “1-ethyl-3-methylimidazolium bis(trifluoromethylsulfonyl)imide [[EMIM] [Tf2N]]”, the entries for the “GUI of Sample (Glucose Utilization Index in the presence of 5% (v/v) of the ionic liquid phase)” value in data set [1] and in data set [4] were 54.5 and 51.2, respectively. In data set [2], this molecule came in with an Ethanol of 670 mM. In addition, in data set [3], the Isobutanol worked out at 389 mM.

Take `CCCCn1cc[n+](C)c1.F[P-](F)(F)(F)(F)F` [[BMIM] [PF6], 1-butyl-3-methylimidazolium hexafluorophosphate]: the “GUI of Sample (Glucose Utilization Index in the presence of 5% (v/v) of the ionic liquid phase)” value in data set [1] is listed as 88.3.

For “1-hexyl-3-methylimidazolium bis(trifluoromethylsulfonyl)imide [[HMIM] [Tf2N]]”, the “GUI of Sample (Glucose Utilization Index in the presence of 5% (v/v) of the ionic liquid phase)” value was determined as 19.5 in data set [1] and 66.2 in data set [4]. For the same molecule, in data set [2], the Ethanol turned out to be 678 mM. Besides, the Isobutanol in data set [3] is reported as 388 mM.

“1-butyl-3-methylimidazolium 1,1,2-trifluoro-2-(perfluoroethoxy)ethanesulfonate [[BMIM] [TPES]]”: in data set [1], the “GUI of Sample (Glucose Utilization Index in the presence of 5% (v/v) of the ionic liquid phase)” value is on record as 7.21.

“tetradecyl(tri-n-hexyl)phosphonium 1,1,2-trifluoro-2-(perfluoroethoxy)ethanesulfonate [[6,6,6,14-P] [TPES]]”: the results for the “GUI of Sample (Glucose Utilization Index in the presence of 5% (v/v) of the ionic liquid phase)” value in data set [1] and in data set [4] were 92.8 and 62.8, respectively.

Consider “3-methyl-1-propylpyridinium bis(trifluoromethylsulfonyl)imide [[PMPy] [Tf2N]]”, for which the “GUI of Sample (Glucose Utilization Index in the presence of 5% (v/v) of the ionic liquid phase)” value in data set [1] is 26.1; in data set [4], 63.5.

For “1-butyl-3-methylimidazolium 1,1,2-trifluoro-2-(trifluoromethoxy)ethanesulfonate [[BMIM] [TTES]]”, the “GUI of Sample (Glucose Utilization Index in the presence of 5% (v/v) of the ionic liquid phase)” value in data set [1] is 16.2.

Consider `CCCCCCn1cc[n+](C)c1.FC(F)(F)C(F)(F)[P-](F)(F)(F)(C(F)(F)C(F)(F)F)C(F)(F)C(F)(F)F` [[HMIM] [FAP], 1-hexyl-3-methylimidazolium tris(pentafluoroethyl)trifluorophosphate], for which the “GUI of Sample (Glucose Utilization Index in the presence of 5% (v/v) of the ionic liquid phase)” value in data set [1] was 84.7. The same molecule displayed an Ethanol in data set [2] of 680 mM. In addition, the Isobutanol in data set [3] turned out to be 404 mM.

“1-ethyl-3-methylimidazolium bis(pentafluoroethylsulfonyl)imide [[EMIM] [BEI]]”: the “GUI of Sample (Glucose Utilization Index in the presence of 5% (v/v) of the ionic liquid phase)” value was 25.5 in data set [1] and 36.0 in data set [4].

With “1-butyl-3-methylimidazolium 1,1,2,3,3,3-hexafluoropropanesulfonate [[BMIM] [HFPS]]”, the “GUI of Sample (Glucose Utilization Index in the presence of 5% (v/v) of the ionic liquid phase)” value in data set [1] was 8.0 and 11.5.

Consider “1-butyl-3-methylimidazolium bis(trifluoromethylsulfonyl)imide [[BMIM] [Tf2N]]”, for which the “GUI of Sample (Glucose Utilization Index in the presence of 5% (v/v) of the ionic liquid phase)” value in data set [1] is given as 26.8.

With `CCCCn1cc[n+](C)c1.F[B-](F)(F)F` [[BMIM] [BF4], 1-butyl-3-methylimidazolium tetrafluoroborate], in data set [1], the “GUI of Sample (Glucose Utilization Index in the presence of 5% (v/v) of the ionic liquid phase)” value amounted to 9.74.

Regarding “1-butyl-3-methylpyrrolidinium bis(trifluoromethylsulfonyl)imide [[BMP] [Tf2N]]”, the “GUI of Sample (Glucose Utilization Index in the presence of 5% (v/v) of the ionic liquid phase)” value in data set [1] was 0.96; in data set [4], 49.8. The molecule further showed an Ethanol in data set [2] of 676 mM. This molecule registered an Isobutanol in data set [3] of 391 mM.

The values above are taken from patent US20100139154A1, “PROCESS FOR FERMENTIVE PREPARATION OF ALCOHOLS AND RECOVERY OF PRODUCT” (E.I. DU PONT DE NEMOURS AND COMPANY, priority 2008, published 2010).
